# Measurements published in PubChem BioAssay AID2060493 (Molecular Pharmacology Branch, DTP, NCI, 2025).
# Tested on: 616215-338-R-J1-PDC tumor spheroids, viability
# Assay: Anticancer human tumor 616215-338-R-J1-PDC patient-derived colon adenocarcinoma cell line growth inhibition [GQUAD]
# Conditions: spheroids with HUVEC and MSC; for IC50: curve of first compound; for viability, T/C: stronger effect = lower value
# Method in brief: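 Multi-cell-type spheroids of tumor cells with HUVEC and mesenchymal stem cells, treated with drug combinations. Concentrations descend in half-log steps from near clinical Cmax, or from 10 microM where Cmax is unknown; viability read-out.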
# [1] = second compound 0.0316 µM, first compound 0.0316 µM
# [2] = second compound 0.0316 µM, first compound 0.1 µM
# [3] = second compound 0.0316 µM, first compound 0.316 µM
# [4] = second compound 0.0316 µM, first compound 1 µM
# [5] = second compound 0.0316 µM, first compound 3.16 µM
# [6] = second compound 0.0316 µM, first compound 10 µM
# [7] = second compound 0.1 µM, first compound 0.0316 µM
# [8] = second compound 0.1 µM, first compound 0.1 µM
# [9] = second compound 0.1 µM, first compound 0.316 µM
# [10] = second compound 0.1 µM, first compound 1 µM
# [11] = second compound 0.1 µM, first compound 3.16 µM
# [12] = second compound 0.1 µM, first compound 10 µM
# [13] = second compound 0.316 µM, first compound 0.0316 µM
# [14] = second compound 0.316 µM, first compound 0.1 µM
# [15] = second compound 0.316 µM, first compound 0.316 µM
# [16] = second compound 0.316 µM, first compound 1 µM
# [17] = second compound 0.316 µM, first compound 3.16 µM
# [18] = second compound 0.316 µM, first compound 10 µM
# [19] = second compound 1 µM, first compound 0.0316 µM
# [20] = second compound 1 µM, first compound 0.1 µM
# [21] = second compound 1 µM, first compound 0.316 µM
# [22] = second compound 1 µM, first compound 1 µM
# [23] = second compound 1 µM, first compound 3.16 µM
# [24] = second compound 1 µM, first compound 10 µM
# [25] = second compound 3.16 µM, first compound 0.0316 µM
# [26] = second compound 3.16 µM, first compound 0.1 µM
# [27] = second compound 3.16 µM, first compound 0.316 µM
# [28] = second compound 3.16 µM, first compound 1 µM
# [29] = second compound 3.16 µM, first compound 3.16 µM
# [30] = second compound 3.16 µM, first compound 10 µM
# [31] = second compound 10 µM, first compound 0.0316 µM
# [32] = second compound 10 µM, first compound 0.1 µM
# [33] = second compound 10 µM, first compound 0.316 µM
# [34] = second compound 10 µM, first compound 1 µM
# [35] = second compound 10 µM, first compound 3.16 µM
# [36] = second compound 10 µM, first compound 10 µM
# 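Note: spheroids exposed to agents for 7 days before readout.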
# 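Throughout, for viability, T/C: percent viability relative to DMSO vehicle control wells taken as 100%.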
smiles,measurement,setting,value
O=C(c1cc(Cc2n[nH]c(=O)c3ccccc23)ccc1F)N1CCN(C(=O)C2CC2)CC1 + CN(C)c1ccc(Nc2c3ccc(NC(=O)CCN4CCCC4)cc3nc3cc(NC(=O)CCN4CCCC4)ccc23)cc1,IC50,second compound 0.0316 µM,> 10 µM
same,IC50,second compound 0.1 µM,> 10 µM
same,IC50,second compound 0.316 µM,> 10 µM
same,IC50,second compound 1 µM,> 10 µM
same,IC50,second compound 3.16 µM,> 10 µM
same,IC50,second compound 10 µM,> 10 µM
same,"viability, T/C",[1],100%
same,"viability, T/C",[2],95.7%
same,"viability, T/C",[3],103%
same,"viability, T/C",[4],111%
same,"viability, T/C",[5],110%
same,"viability, T/C",[6],71.9%
same,"viability, T/C",[7],103%
same,"viability, T/C",[8],102%
same,"viability, T/C",[9],104%
same,"viability, T/C",[10],103%
same,"viability, T/C",[11],111%
same,"viability, T/C",[12],74.8%
same,"viability, T/C",[13],104%
same,"viability, T/C",[14],114%
same,"viability, T/C",[15],112%
same,"viability, T/C",[16],106%
same,"viability, T/C",[17],99.3%
same,"viability, T/C",[18],68.6%
same,"viability, T/C",[19],108%
same,"viability, T/C",[20],100%
same,"viability, T/C",[21],96.9%
same,"viability, T/C",[22],97.3%
same,"viability, T/C",[23],104%
same,"viability, T/C",[24],69%
same,"viability, T/C",[25],112%
same,"viability, T/C",[26],97.8%
same,"viability, T/C",[27],98.8%
same,"viability, T/C",[28],109%
same,"viability, T/C",[29],105%
same,"viability, T/C",[30],57.4%
same,"viability, T/C",[31],96.6%
same,"viability, T/C",[32],82.9%
same,"viability, T/C",[33],99.3%
same,"viability, T/C",[34],99.6%
same,"viability, T/C",[35],67%
same,"viability, T/C",[36],54.9%
CCCS(=O)(=O)Nc1ccc(F)c(C(=O)c2c[nH]c3ncc(-c4ccc(Cl)cc4)cc23)c1F + Cc1[nH]c2ccc(F)cc2c1-c1nc2c3cccnc3c3ncccc3c2[nH]1,IC50,second compound 0.0316 µM,5.54 µM
same,IC50,second compound 0.1 µM,5.28 µM
same,IC50,second compound 0.316 µM,5.62 µM
same,IC50,second compound 1 µM,5.42 µM
same,IC50,second compound 3.16 µM,5.19 µM
same,IC50,second compound 10 µM,4.76 µM
same,"viability, T/C",[1],105%
same,"viability, T/C",[2],96.7%
same,"viability, T/C",[3],93.8%
same,"viability, T/C",[4],99.1%
same,"viability, T/C",[5],94.9%
same,"viability, T/C",[6],2.78%
same,"viability, T/C",[7],93.6%
same,"viability, T/C",[8],107%
same,"viability, T/C",[9],102%
same,"viability, T/C",[10],102%
same,"viability, T/C",[11],87.6%
same,"viability, T/C",[12],3.08%
same,"viability, T/C",[13],104%
same,"viability, T/C",[14],98.7%
same,"viability, T/C",[15],99%
same,"viability, T/C",[16],98%
same,"viability, T/C",[17],96.5%
same,"viability, T/C",[18],3.41%
same,"viability, T/C",[19],109%
same,"viability, T/C",[20],106%
same,"viability, T/C",[21],89%
same,"viability, T/C",[22],96.3%
same,"viability, T/C",[23],91.5%
same,"viability, T/C",[24],2.83%
same,"viability, T/C",[25],96.7%
same,"viability, T/C",[26],91.4%
same,"viability, T/C",[27],101%
same,"viability, T/C",[28],95.2%
same,"viability, T/C",[29],86.6%
same,"viability, T/C",[30],1.44%
same,"viability, T/C",[31],101%
same,"viability, T/C",[32],92.3%
same,"viability, T/C",[33],101%
same,"viability, T/C",[34],93.5%
same,"viability, T/C",[35],76.8%
same,"viability, T/C",[36],1.37%
Cc1cccc(N(C)C(=O)C2C(O)CCN2c2nc(C)cc(C(F)(F)F)c2C#N)c1 (stereo not drawn) + CN(C)c1ccc(Nc2c3ccc(NC(=O)CCN4CCCC4)cc3nc3cc(NC(=O)CCN4CCCC4)ccc23)cc1,IC50,second compound 0.0316 µM,> 10 µM
same,IC50,second compound 0.1 µM,> 10 µM
same,IC50,second compound 0.316 µM,> 10 µM
same,IC50,second compound 1 µM,> 10 µM
same,IC50,second compound 3.16 µM,> 10 µM
same,IC50,second compound 10 µM,3.12 µM
same,"viability, T/C",[1],111%
same,"viability, T/C",[2],97.9%
same,"viability, T/C",[3],103%
same,"viability, T/C",[4],103%
same,"viability, T/C",[5],105%
same,"viability, T/C",[6],109%
same,"viability, T/C",[7],102%
same,"viability, T/C",[8],101%
same,"viability, T/C",[9],108%
same,"viability, T/C",[10],101%
same,"viability, T/C",[11],104%
same,"viability, T/C",[12],96.2%
same,"viability, T/C",[13],104%
same,"viability, T/C",[14],99.5%
same,"viability, T/C",[15],104%
same,"viability, T/C",[16],107%
same,"viability, T/C",[17],114%
same,"viability, T/C",[18],110%
same,"viability, T/C",[19],100%
same,"viability, T/C",[20],99.1%
same,"viability, T/C",[21],106%
same,"viability, T/C",[22],97.8%
same,"viability, T/C",[23],102%
same,"viability, T/C",[24],98.7%
same,"viability, T/C",[25],98.6%
same,"viability, T/C",[26],93.1%
same,"viability, T/C",[27],103%
same,"viability, T/C",[28],102%
same,"viability, T/C",[29],88.2%
same,"viability, T/C",[30],88.9%
same,"viability, T/C",[31],102%
same,"viability, T/C",[32],78.2%
same,"viability, T/C",[33],80.2%
same,"viability, T/C",[34],63.5%
same,"viability, T/C",[35],49%
same,"viability, T/C",[36],36.6%
CC1COCCN1c1cc(-c2ccnn2C)c2ccnc(-c3ccn[nH]3)c2n1 (stereo not drawn) + Cc1[nH]c2ccc(F)cc2c1-c1nc2c3cccnc3c3ncccc3c2[nH]1,IC50,second compound 0.0316 µM,0.224 µM
same,IC50,second compound 0.1 µM,0.139 µM
same,IC50,second compound 0.316 µM,0.185 µM
same,IC50,second compound 1 µM,0.17 µM
same,IC50,second compound 3.16 µM,0.14 µM
same,IC50,second compound 10 µM,0.14 µM
same,"viability, T/C",[1],96.6%
same,"viability, T/C",[2],70.7%
same,"viability, T/C",[3],41.7%
same,"viability, T/C",[4],25.1%
same,"viability, T/C",[5],30.2%
same,"viability, T/C",[6],20.1%
same,"viability, T/C",[7],97.8%
same,"viability, T/C",[8],56.3%
same,"viability, T/C",[9],34.1%
same,"viability, T/C",[10],25.2%
same,"viability, T/C",[11],24.9%
same,"viability, T/C",[12],19.9%
same,"viability, T/C",[13],91.5%
same,"viability, T/C",[14],62.1%
same,"viability, T/C",[15],40%
same,"viability, T/C",[16],27.7%
same,"viability, T/C",[17],22.6%
same,"viability, T/C",[18],23.9%
same,"viability, T/C",[19],91.5%
same,"viability, T/C",[20],63%
same,"viability, T/C",[21],33.6%
same,"viability, T/C",[22],32.2%
same,"viability, T/C",[23],22.9%
same,"viability, T/C",[24],24.7%
same,"viability, T/C",[25],91.9%
same,"viability, T/C",[26],57.9%
same,"viability, T/C",[27],30.2%
same,"viability, T/C",[28],26.1%
same,"viability, T/C",[29],21.2%
same,"viability, T/C",[30],17.9%
same,"viability, T/C",[31],90.1%
same,"viability, T/C",[32],50%
same,"viability, T/C",[33],40.3%
same,"viability, T/C",[34],31.5%
same,"viability, T/C",[35],22.6%
same,"viability, T/C",[36],16.4%
